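Grown in 96-well plates, cells were treated for 48 hours with each compound at five concentrations. Insufficient inhibition: endpoint recorded as highest concentration tested. TGI: total growth inhibition.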
Assays:
Test in all cases: NCI tumour cell line growth inhibition, 48 h
UACC-257 melanoma = system: UACC-257 melanoma
RXF 393 renal = system: RXF 393 renal
A549 NSCLC = system: A549 NSCLC
HCT-116 colon = system: HCT-116 colon
OVCAR-5 ovarian = system: OVCAR-5 ovarian
MDA-N = system: MDA-N
NCI-H23 lung = system: NCI-H23 lung
MDA-MB-435 = system: MDA-MB-435
OVCAR-4 ovarian = system: OVCAR-4 ovarian
SF-295 CNS = system: SF-295 CNS
U251 CNS = system: U251 CNS
EKVX NSCLC = system: EKVX NSCLC
M14 melanoma = system: M14 melanoma
IGROV1 ovarian = system: IGROV1 ovarian
NCI/ADR-RES ovarian = system: NCI/ADR-RES ovarian
HOP-92 NSCLC = system: HOP-92 NSCLC
SN12C renal = system: SN12C renal
MDA-MB-231 breast = system: MDA-MB-231 breast
KM12 colon = system: KM12 colon
HL-60(TB) leukemia = system: HL-60(TB) leukemia
MALME-3M melanoma = system: MALME-3M melanoma
HCT-15 colon = system: HCT-15 colon
LOX IMVI melanoma = system: LOX IMVI melanoma
HCC-2998 colon = system: HCC-2998 colon
OVCAR-8 ovarian = system: OVCAR-8 ovarian
MCF7 breast = system: MCF7 breast
SK-MEL-2 melanoma = system: SK-MEL-2 melanoma
786-0 renal = system: 786-0 renal
COLO 205 colon = system: COLO 205 colon
SNB-19 CNS = system: SNB-19 CNS
BT-549 breast = system: BT-549 breast
UO-31 renal = system: UO-31 renal
PC-3 prostate = system: PC-3 prostate
TK-10 renal = system: TK-10 renal
SK-MEL-28 melanoma = system: SK-MEL-28 melanoma
NCI-H226 lung = system: NCI-H226 lung
NCI-H522 lung = system: NCI-H522 lung
ACHN renal = system: ACHN renal
CAKI-1 renal = system: CAKI-1 renal
HT29 colon = system: HT29 colon
DU-145 prostate = system: DU-145 prostate
NCI-H460 lung = system: NCI-H460 lung
HS 578T breast = system: HS 578T breast
SW-620 colon = system: SW-620 colon
CCRF-CEM leukemia = system: CCRF-CEM leukemia
HOP-62 NSCLC = system: HOP-62 NSCLC
OVCAR-3 ovarian = system: OVCAR-3 ovarian
SK-MEL-5 melanoma = system: SK-MEL-5 melanoma
SK-OV-3 ovarian = system: SK-OV-3 ovarian
UACC-62 melanoma = system: UACC-62 melanoma
SF-268 CNS = system: SF-268 CNS
A498 renal = system: A498 renal
MOLT-4 leukemia = system: MOLT-4 leukemia
SR leukemia = system: SR leukemia
SF-539 CNS = system: SF-539 CNS
RPMI-8226 leukemia = system: RPMI-8226 leukemia
T-47D breast = system: T-47D breast
K-562 leukemia = system: K-562 leukemia
SNB-75 CNS = system: SNB-75 CNS

Measured: TGI

c1ccc(CCNc2ccccn2)nc1
not listed: MOLT-4 leukemia | SR leukemia | SF-539 CNS | RPMI-8226 leukemia | T-47D breast | K-562 leukemia | SNB-75 CNS
> 100 µM: all other assays above

O=Cc1[nH]c(=O)[nH]c(=O)c1C(=O)O
not listed: BT-549 breast | A498 renal
> 100 µM: all other assays above

CC(C)(C)OC(=O)[C@H]1CCC(=S)N1Cc1ccccc1
not listed: BT-549 breast | HT29 colon | HS 578T breast | HOP-62 NSCLC | SF-268 CNS | T-47D breast | K-562 leukemia
> 100 µM: all other assays above

Reference: PubChem BioAssay (NCI)
